Assay results: patent US11738007B2, “Treatment of glaucoma using endothelin receptor antagonists” (Perfuse Therapeutics, Inc., priority 2019, dated 2023)
Values joined by “and” are separate entries in the source; they are usually repeats but may differ in a detail not shown here. Identical values can stand only once. Like-named read-outs stand apart in the source and are kept apart here.

How the values were obtained:
LogD = format: physicochemical; settings: pH 7.4
Description: (§1) In the above table, the physicochemical data, e.g., solubility, were obtained following standard protocols known in the field (see, e.g., Reis et al., Mini Rev Med Chem., 2010, 10(11):1071-6; Avdeef et al., Expert Opin Drug Metab Toxicol., 2005, 1(2):325-42; Bharate et al., Comb Chem High Throughput Screen., 2016, 19(6):461-9; and Jain et al., J Pharm Biomed Anal., 2013, 86:11-35); and the biochemical data, i.e., potency for ETA/ETB, were obtained following the protocols known in the field (see, e.g., Kirkby et al., Br J Pharmacol., 2008, 153(6):1105-19; and Maguire et al., Br J Pharmacol., 2014, 171(24):5555-72).

[1] = test system: elevated intraocular pressure (IOP); test: Morrison's rat model of glaucoma (elevated IOP); format: in vivo, Brown Norway rats; settings: topical eye drops 100 μg per dose, five days a week, four weeks
Description: Adult male and female retired breeder Brown Norway rats (approximate age groups of 8 to 11 months) were obtained from Envigo (Indianapolis, Ind.). Baseline IOP measurements and pattern electroretinogram (PERG) amplitudes were collected prior to the surgery for elevation of IOP (to ensure that the IOP and PERG amplitudes were in the expected range of values). IOP was elevated in one eye (left eye) of the rats, while the corresponding right eyes served as contralateral controls. The Morrison method to elevate IOP in rats was carried out by injection of 50 μL of hypertonic saline through the episcleral veins to sclerose the trabecular meshwork. IOP was measured twice a week throughout the entire duration of the experiment. […] After detecting an elevation of IOP for two consecutive days, topical administration of eye drops (20 μL (100 μg) per dose of the tested compounds in the IOP elevated eye) was commenced and carried out for five days a week for a total of four weeks. In the 4th week of treatment, PERG analysis was carried out and rats were sacrificed by an overdose of pentobarbital (Fatal-Plus). Aqueous humor was collected from the rat eyes, frozen and shipped for analysis. Retinal flat mounts were prepared, immunostained with the RGC marker, Brn3a antibody and surviving RGCs were counted in two eccentricities (central and peripheral). For this study, the Morrison's model was used to induce ocular hypertension in adult male retired breeder Brown Norway rats as previously described by Morrison et al., (Morrison J C, Moore […], Gold […], Johnson E C. A rat model of chronic pressure-induced optic nerve damage. Exp Eye Res. 1997; 64(1):85-96). The immunostained retinal flat mounts were obtained to measure the retinal ganglion cell (RGC) counts. To obtain immunostained retinal flat mounts, the animals were euthanized after the treatments and then their eyes were enucleated. The eye cups were fixed overnight at 4° C. in 4% paraformaldehyde (PFA) and retinal flat mounts were prepared for collecting images. The retinal ganglion cell (RGC) counting was conducted using the images of immunostained retinal flat mounts. The images were uploaded to ImageJ, a photo editor designed for biology research (Rasband, 1997-2018) and the labeled retinal ganglion cells were counted manually in two eccentricities (central and peripheral). […] Pattern ERG (PERG) was used to assess the RGC function. […] Briefly, PERG signals were acquired from a DTL-plus electrode placed on the lower part of the corneal surface and the PERG waves were analyzed using the EMWIN software (LKC). The difference between the amplitude of the major positive (P1) and negative (N2) waves were calculated to […] amplitude.

ETB receptor = molecular target: T1, ETB receptor (Homo sapiens, UniProt P24530); test: Functional potency for ETB receptor; format: biochemical
T1 sequence (P24530 27-442): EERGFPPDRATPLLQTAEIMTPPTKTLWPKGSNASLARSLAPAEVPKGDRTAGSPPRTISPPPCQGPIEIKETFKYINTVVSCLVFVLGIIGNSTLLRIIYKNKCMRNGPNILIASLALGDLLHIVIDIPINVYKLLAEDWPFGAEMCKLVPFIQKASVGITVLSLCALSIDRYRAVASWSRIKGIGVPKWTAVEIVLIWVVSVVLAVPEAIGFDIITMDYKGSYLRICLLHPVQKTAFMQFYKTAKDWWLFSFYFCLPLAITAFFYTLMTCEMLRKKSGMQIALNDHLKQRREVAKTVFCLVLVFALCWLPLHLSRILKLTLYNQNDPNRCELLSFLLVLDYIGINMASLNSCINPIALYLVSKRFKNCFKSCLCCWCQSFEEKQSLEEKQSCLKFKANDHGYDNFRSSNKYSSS
Description: as §1

ETA/ETB receptor = test: ETA/ETB selectivity (specificity); format: biochemical; settings: ETA versus ETB, rating in words
Description: as §1

[2] = Pharmacokinetics after topical or oral administration in the rat; format: in vivo, Brown Norway rats
Description: After the administrations, the animals (N=2) were euthanized at different time points (e.g. 4 and 8 hours) and tissues were collected for analysis. List of tissues collected include plasma, retina/retinal pigment epithelium (RPE)/choroid, vitreous humor and aqueous humor.

Stability in solid state = format: physicochemical; settings: 2 h @ l25° C.
Description: as §1

Solubility = format: physicochemical
Description: as §1

Permeability (PAMPA) = format: in vitro ADME; settings: rating in words
Description: as §1

ETA receptor = molecular target: T2, ETA receptor (Homo sapiens, UniProt P25101); test: Functional potency for ETA receptor; format: biochemical; settings: rating in words
T2 sequence (P25101 21-427): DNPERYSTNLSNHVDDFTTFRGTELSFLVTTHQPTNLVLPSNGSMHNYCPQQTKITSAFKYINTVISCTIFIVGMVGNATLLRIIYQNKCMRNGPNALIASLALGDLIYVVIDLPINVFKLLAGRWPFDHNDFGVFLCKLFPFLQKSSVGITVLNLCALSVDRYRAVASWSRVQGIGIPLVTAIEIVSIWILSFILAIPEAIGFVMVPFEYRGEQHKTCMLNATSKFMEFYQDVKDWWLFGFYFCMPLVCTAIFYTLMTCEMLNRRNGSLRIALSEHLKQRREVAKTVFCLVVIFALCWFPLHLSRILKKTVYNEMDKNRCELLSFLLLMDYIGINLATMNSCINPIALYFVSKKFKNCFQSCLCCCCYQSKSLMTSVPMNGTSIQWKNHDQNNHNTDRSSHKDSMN
Description: as §1

CCCCCS(=O)(=O)N(CCC)CCN1C[C@H](c2ccc3c(c2)OCO3)[C@@H](C(=O)O)[C@@H]1c1ccc(OC)c(F)c1 [A-182086, (2R,3R,4S)-4-(2H-1,3-benzodioxol-5-yl)-2-(3-fluoro-4-methoxyphenyl)-1-[2-(N-propylpentane-1-sulfonamido)ethyl]pyrrolidine-3-carboxylic acid]
logD (LogD): 2.3
RGC function, pattern electroretinogram (PERG) changes [1]: maintained RGC function
Retinal ganglion cell (RGC) counts, peripheral retina [1]: prevented RGC loss
IC50 (ETB receptor): 3.48 nM
Specificity (rating) (ETA/ETB receptor): Low specificity
Detection in retina/RPE/choroid ([2]; oral, 50 mg/kg): detectable
Detection in retina/RPE/choroid, aqueous humor and vitreous humor ([2]; topical eye drop 100 μg, 4 and 8 hours post-administration): detected
Stability in Solid State (rating) (Stability in solid state): unstable
Stability in Solid State, remaining (Stability in solid state): about 87% remaining/
solubility (Solubility; aqueous buffer, pH 7, amorphous form, read-out: Solubility at pH 7): 173 µg/mL and 298 µM
solubility (Solubility; ethyl acetate, organic solvent or mixture, read-out: Solubility in Ethyl Acetate): > 10600 µg/mL and > 18400 µM
Solubility in Ethyl Acetate (rating) (Solubility; ethyl acetate, rating in words): Good
solubility (Solubility; pH 2, simulated gastric fluid, read-out: Solubility at pH 2): 92.5 µg/mL and 160 µM
Permeability (rating) (Permeability (PAMPA)): Mid-High
Functional Potency for ETA and ETB Receptors (rating) (ETA receptor): High potency
